Laboratory results from ChEMBL document CHEMBL3425465, “Synthesis, antimalarial and antitubercular activities of meridianin derivatives” (Eur J Med Chem, 2015).
≈ marks a conversion by molar mass, not a printed value.

Assays:
[1] = tested on: Mycobacterium tuberculosis; assay: Antitubercular activity against Mycobacterium tuberculosis H37Rv assessed as […] inhibition after 7 days by broth microdilution assay; type: functional; settings: 168 h
[2] = Retention time of the compound by HPLC analysis; type: physicochemical
[3] = tested on: Plasmodium falciparum; assay: Antiplasmodial activity against Plasmodium falciparum W2 infected in human RBC assessed as parasite growth inhibition measured as LDH activity after 72 hrs by plate reader analysis; type: functional, organism-based
[4] = tested on: Plasmodium falciparum; assay: Antiplasmodial activity against Plasmodium falciparum D6 infected in human RBC assessed as parasite growth inhibition measured as LDH activity after 72 hrs by plate reader analysis; type: functional, organism-based
[5] = tested on: BT-549; assay: Cytotoxicity against human BT549 cells assessed as cell growth inhibition after 48 hrs by neutral red assay; type: cell-based; settings: BT-549, 48 h
[6] = tested on: SK-OV-3; assay: Cytotoxicity against human SKOV3 cells assessed as cell growth inhibition after 48 hrs by neutral red assay; type: cell-based; settings: SK-OV-3, 48 h
[7] = Selectivity index, ratio of IC50 for pig LLC-PK1 cells to IC50 for Plasmodium falciparum W2
[8] = Selectivity index, ratio of IC50 for African green monkey VERO cells to IC50 for Plasmodium falciparum D6
[9] = tested on: Vero; assay: Cytotoxicity against African green monkey Vero cells assessed as cell growth inhibition after 48 hrs by neutral red assay; type: cell-based; settings: Chlorocebus sabaeus
[10] = Selectivity index, ratio of IC50 for African green monkey VERO cells to IC50 for Plasmodium falciparum W2
[11] = tested on: SK-MEL; assay: Cytotoxicity against human SK-MEL cells assessed as cell growth inhibition after 48 hrs by neutral red assay; type: cell-based
[12] = Selectivity index, ratio of IC50 for pig LLC-PK1 cells to IC50 for Plasmodium falciparum D6
[13] = tested on: KB; assay: Cytotoxicity against human KB cells assessed as cell growth inhibition after 48 hrs by neutral red assay; type: cell-based
[14] = tested on: LLC-PK1; assay: Cytotoxicity against pig LLC-PK1 cells assessed as cell growth inhibition after 48 hrs by neutral red assay; type: cell-based; settings: Sus scrofa, LLC-PK1, 48 h
[15] = Plasmodium falciparum, W2, 72 h, read-out: IC50
[16] = Plasmodium falciparum, W2, 72 h, read-out: pIC50 (converted)
[17] = Plasmodium falciparum, D6, 72 h, read-out: IC50
[18] = Plasmodium falciparum, D6, 72 h, read-out: pIC50 (converted)

## CN1CCN(C(=O)n2cc(-c3ccnc(N)n3)c3cc(Br)ccc32)CC1
[1]
  MIC90: 155 µM (≈ 64.2 µg/mL)

## Nc1nccc(-c2cn(C(=O)c3ccccc3)c3ccc(Br)cc23)n1
[1]
  MIC90: 163 µM (≈ 64 µg/mL)

## Cc1noc(C)c1Cn1cc(-c2ccnc(N)n2)c2ccccc21
[1]
  MIC90: 201 µM (≈ 64.1 µg/mL)

## Cc1noc(C)c1Cn1cc(-c2ccnc(N)n2)c2cc(Br)ccc21
[1]
  MIC90: 80.6 µM (≈ 32.1 µg/mL)

## Nc1nccc(-c2cn(Cc3ccc(Cl)s3)c3ccc(Br)cc23)n1
[1]
  MIC90: 76.6 µM (≈ 32.2 µg/mL)

## COCCn1cc(-c2ccnc(N)n2)c2cc(Br)ccc21
[1]
  MIC90: 92.2 µM (≈ 32 µg/mL)

## O=C1NC(c2c[nH]c3ccc(Br)cc23)Nc2ccccc21 (stereo unspecified)
[1]
  MIC90: 23.4 µM (≈ 8.01 µg/mL)

## COc1ccc(S(=O)(=O)n2cc(-c3ccnc(N)n3)c3ccccc32)cc1
[2]
  Retention_time: 8.49 min
[3]
  IC50: Not Active
[4]
  IC50: Not Active

## COc1ccc(S(=O)(=O)n2cc(-c3ccnc(N)n3)c3cc(Br)ccc32)cc1
[2]
  Retention_time: 8.08 min
[3]
  IC50: Not Active
[4]
  IC50: Not Active

## CC(C)(C)c1ccc(S(=O)(=O)n2cc(-c3ccnc(N)n3)c3ccccc32)cc1
[2]
  Retention_time: 9.09 min
[3]
  IC50: Not Active
[4]
  IC50: Not Active

## CC(C)(C)c1ccc(S(=O)(=O)n2cc(-c3ccnc(N)n3)c3cc(Br)ccc32)cc1
[2]
  Retention_time: 13.2 min
[3]; [15]
  IC50: 8.74 µM
[3]; [16]
  IC50: 8.75 µM
[5]
  IC50: > 51 µM
[6]
  IC50: > 51 µM
[7]
  Ratio IC50: >5.9
[8]
  Ratio IC50: >6.1
[4]; [17]
  IC50: 8.36 µM
[4]; [18]
  IC50: 8.36 µM
[9]
  IC50: > 51 µM
[10]
  Ratio IC50: >5.9
[11]
  IC50: > 51 µM
[12]
  Ratio IC50: >6.1
[13]
  IC50: > 51 µM
[14]
  IC50: > 51 µM

## Cc1cc(C)c(S(=O)(=O)n2cc(-c3ccnc(N)n3)c3ccccc32)c(C)c1
[2]
  Retention_time: 8.95 min
[3]
  IC50: Not Active
[4]
  IC50: Not Active

## Cc1cc(C)c(S(=O)(=O)n2cc(-c3ccnc(N)n3)c3cc(Br)ccc32)c(C)c1
[2]
  Retention_time: 10.66 min
[3]; [15]
  IC50: 8.36 µM
[3]; [16]
  IC50: 8.36 µM
[5]
  IC50: > 53 µM
[6]
  IC50: > 53 µM
[7]
  Ratio IC50: >6.3
[8]
  Ratio IC50: >6.5
[4]; [17]
  IC50: 8.12 µM
[4]; [18]
  IC50: 8.13 µM
[9]
  IC50: > 53 µM
[10]
  Ratio IC50: >6.3
[11]
  IC50: > 53 µM
[12]
  Ratio IC50: >6.5
[13]
  IC50: > 53 µM
[14]
  IC50: > 53 µM

## Cc1c(C)c(C)c(S(=O)(=O)n2cc(-c3ccnc(N)n3)c3ccccc32)c(C)c1C
[2]
  Retention_time: 10 min

## Cc1c(C)c(C)c(S(=O)(=O)n2cc(-c3ccnc(N)n3)c3cc(Br)ccc32)c(C)c1C
[2]
  Retention_time: 13.88 min

## Nc1nccc(-c2cn(S(=O)(=O)c3ccc([N+](=O)[O-])cc3)c3ccccc23)n1
[2]
  Retention_time: 7.43 min

## Nc1nccc(-c2cn(S(=O)(=O)c3ccc([N+](=O)[O-])cc3)c3ccc(Br)cc23)n1
[2]
  Retention_time: 7.78 min
[3]; [15]
  IC50: 6.39 µM
[3]; [16]
  IC50: 6.38 µM
[5]
  IC50: > 52 µM
[6]
  IC50: > 52 µM
[7]
  Ratio IC50: >8.2
[8]
  Ratio IC50: >10.8
[4]; [17]
  IC50: 4.86 µM
[4]; [18]
  IC50: 4.86 µM
[9]
  IC50: > 52 µM
[10]
  Ratio IC50: >8.2
[11]
  IC50: > 52 µM
[12]
  Ratio IC50: >10.8
[13]
  IC50: > 52 µM
[14]
  IC50: > 52 µM

## N#Cc1ccc(S(=O)(=O)n2cc(-c3ccnc(N)n3)c3ccccc32)cc1
[2]
  Retention_time: 7.02 min
[3]; [15]
  IC50: 8.98 µM
[3]; [16]
  IC50: 8.97 µM
[5]
  IC50: > 66 µM
[6]
  IC50: > 66 µM
[7]
  Ratio IC50: >7.4
[8]
  Ratio IC50: >6
[4]; [17]
  IC50: 11 µM
[4]; [18]
  IC50: 11 µM
[9]
  IC50: > 66 µM
[10]
  Ratio IC50: >7.4
[11]
  IC50: > 66 µM
[12]
  Ratio IC50: >6
[13]
  IC50: > 66 µM
[14]
  IC50: > 66 µM

## Nc1nccc(-c2cn(S(=O)(=O)c3cccc(C(F)(F)F)c3)c3ccccc23)n1
[2]
  Retention_time: 8.34 min
[3]
  IC50: Not Active
[4]
  IC50: Not Active
[1]
  MIC90: 153 µM (≈ 64.1 µg/mL)

## Nc1nccc(-c2cn(S(=O)(=O)c3cccc(C(F)(F)F)c3)c3ccc(Br)cc23)n1
[2]
  Retention_time: 8.61 min
[3]; [15]
  IC50: 5.34 µM
[3]; [16]
  IC50: 5.35 µM
[5]
  IC50: > 50 µM
[6]
  IC50: > 50 µM
[7]
  Ratio IC50: >9.4
[8]
  Ratio IC50: >5.4
[4]; [17]
  IC50: 9.3 µM
[4]; [18]
  IC50: 9.29 µM
[9]
  IC50: > 50 µM
[10]
  Ratio IC50: >9.4
[11]
  IC50: > 50 µM
[12]
  Ratio IC50: >5.4
[13]
  IC50: > 50 µM
[14]
  IC50: > 50 µM
